Laboratory results published in BindingDB's records for doi:10.1021/jm00067a004 (Glaxo Group Research, 1993).
Where “and” joins values, the source holds several entries; their conditions need not be identical. Equal entries are not always repeated.

Experiment: In vitro agonist activity at kappa opioid receptor in rabbit vas deferens.

Row | Compound | IC50 [nM]
1 | O=CN1CCN(C(=O)Cc2ccc(Cl)c(Cl)c2)C(CN2CCCC2)C1 (centres undefined) [4-[2-(3,4-Dichloro-phenyl)-acetyl]-3-pyrrolidin-1-ylmethyl-piperazine-1-carbaldehyde] | 15
2 | COC(=O)/C=C1\CCN(CC2CN(C(=O)OC)CCN2C(=O)Cc2ccc(Cl)c(Cl)c2)C1 (centres undefined) [4-[2-(3,4-Dichloro-phenyl)-acetyl]-3-(3-methoxycarbonylmethylene-pyrrolidin-1-ylmethyl)-piperazine-1-carboxylic acid methyl ester] | 4
3 | COC(=O)/C=C1/CCN(CC2CN(C(=O)OC)CCN2C(=O)Cc2ccc(Cl)c(Cl)c2)C1 (centres undefined) [4-[2-(3,4-Dichloro-phenyl)-acetyl]-3-(3-methoxycarbonylmethylene-pyrrolidin-1-ylmethyl)-piperazine-1-carboxylic acid methyl ester] | 0.28
4 | CC(=O)N1CCN(C(=O)Cc2ccc(Cl)c(Cl)c2)C(CN2CCCC2)C1 (centres undefined) [1-(4-Acetyl-2-pyrrolidin-1-ylmethyl-piperazin-1-yl)-2-(3,4-dichloro-phenyl)-ethanone] | 10
5 | CCOC(=O)N1CCN(C(=O)Cc2ccc(Cl)c(Cl)c2)C(CN2CCCC2)C1 (centres undefined) [4-[2-(3,4-Dichloro-phenyl)-acetyl]-3-pyrrolidin-1-ylmethyl-piperazine-1-carboxylic acid ethyl ester] | 3.5
6 | O=C(c1ccccc1)N1CCN(C(=O)Cc2ccc(Cl)c(Cl)c2)C(CN2CCCC2)C1 (centres undefined) [1-(4-Benzoyl-2-pyrrolidin-1-ylmethyl-piperazin-1-yl)-2-(3,4-dichloro-phenyl)-ethanone] | > 10000
7 | CCC(=O)N1CCN(C(=O)Cc2ccc(Cl)c(Cl)c2)C(CN2CCCC2)C1 (centres undefined) [1-{4-[2-(3,4-Dichloro-phenyl)-acetyl]-3-pyrrolidin-1-ylmethyl-piperazin-1-yl}-propan-1-one] | 6.9
8 | COC(=O)N1CCN(C(=O)Cc2ccc(Cl)c(Cl)c2)C(CN2CCC(=O)C2)C1 (centres undefined) [4-[2-(3,4-Dichloro-phenyl)-acetyl]-3-(3-oxo-pyrrolidin-1-ylmethyl)-piperazine-1-carboxylic acid methyl ester] | 0.34
9 | COC(=O)N1CCN(C(=O)Cc2ccc(Cl)c(Cl)c2)C(CN2CC=CCC2)C1 (centres undefined) [4-[2-(3,4-Dichloro-phenyl)-acetyl]-3-(3,6-dihydro-2H-pyridin-1-ylmethyl)-piperazine-1-carboxylic acid methyl ester] | 0.04
10 | C=CC(=O)N1CCN(C(=O)Cc2ccc(Cl)c(Cl)c2)C(CN2CCCC2)C1 (centres undefined) [1-{4-[2-(3,4-Dichloro-phenyl)-acetyl]-3-pyrrolidin-1-ylmethyl-piperazin-1-yl}-propenone] | 0.42
11 | O=C(Cc1ccccc1)N1CCN(C(=O)Cc2ccc(Cl)c(Cl)c2)C(CN2CCCC2)C1 (centres undefined) [2-(3,4-Dichloro-phenyl)-1-(4-phenylacetyl-2-pyrrolidin-1-ylmethyl-piperazin-1-yl)-ethanone] | > 10000
12 | CCCOC(=O)N1CCN(C(=O)Cc2ccc(Cl)c(Cl)c2)C(CN2CCCC2)C1 (centres undefined) [4-[2-(3,4-Dichloro-phenyl)-acetyl]-3-pyrrolidin-1-ylmethyl-piperazine-1-carboxylic acid propyl ester] | 300
13 | O=C(Oc1ccccc1)N1CCN(C(=O)Cc2ccc(Cl)c(Cl)c2)C(CN2CCCC2)C1 (centres undefined) [4-[2-(3,4-Dichloro-phenyl)-acetyl]-3-pyrrolidin-1-ylmethyl-piperazine-1-carboxylic acid phenyl ester] | > 10000
14 | O=C(OCc1ccccc1)N1CCN(C(=O)Cc2ccc(Cl)c(Cl)c2)C(CN2CCCC2)C1 (centres undefined) [4-[2-(3,4-Dichloro-phenyl)-acetyl]-3-pyrrolidin-1-ylmethyl-piperazine-1-carboxylic acid benzyl ester] | 450
15 | COC(=O)N1CCN(C(=O)Cc2ccc(Cl)c(Cl)c2)C(CN(C)C)C1 (centres undefined) [4-[2-(3,4-Dichloro-phenyl)-acetyl]-3-dimethylaminomethyl-piperazine-1-carboxylic acid methyl ester] | 1.2
16 | COCC(=O)N1CCN(C(=O)Cc2ccc(Cl)c(Cl)c2)C(CN2CCCC2)C1 (centres undefined) [2-(3,4-Dichloro-phenyl)-1-[4-(2-methoxy-acetyl)-2-pyrrolidin-1-ylmethyl-piperazin-1-yl]-ethanone] | 2900
17 | CCCC(=O)N1CCN(C(=O)Cc2ccc(Cl)c(Cl)c2)C(CN2CCCC2)C1 (centres undefined) [1-{4-[2-(3,4-Dichloro-phenyl)-acetyl]-3-pyrrolidin-1-ylmethyl-piperazin-1-yl}-butan-1-one] | 60
18 | COC(=O)N1CCN(C(=O)Cc2ccc(Cl)c(Cl)c2)C(CN2CCC(O)C2)C1 (centres undefined) [4-[2-(3,4-Dichloro-phenyl)-acetyl]-3-(3-hydroxy-pyrrolidin-1-ylmethyl)-piperazine-1-carboxylic acid methyl ester] | 0.34

Experiment: as above
Remark: another data set of the same source

Row | Compound | IC50
19 | COC(=O)N1CCN(C(=O)Cc2ccc(Cl)c(Cl)c2)C(CN2CCCC2)C1 (centres undefined) [GR-89696] | 0.041 nM and 0.018 nM
